Data on one compound can be found in patent publication US9636299B2, “Method for treating diabetic retinopathy” (XAVIER UNIVERSITY OF LOUISIANA, priority 2012, dated 2017).

Residues, ends and D or L forms follow the SMILES beside them.

The subject of one experiment is MMP9. Kind of experiment: Laser photocoagulation-induced retinal injury in mice, MMP9 real-time RT-PCR. The format is in vivo, mouse. The note with it: apoEdp 40 mg/kg intraperitoneally once each day for 7 days, vs mice without apoEdp. How it is done:
Laser Photocoagulation-Induced Retinopathy. Female mice (C57BL/6J), aged 6-8 weeks, were used for retinal laser photocoagulation studies. The mice were treated and maintained in accordance with the ARVO Statement for the Use of Animals in Ophthalmic and Vision Research. The mice were anesthetized by intraperitoneal injection of a mixture of ketamine (100 mg/kg; Warner Lambert Co., Morris Plains, N.J.) and xylazine (10 mg/kg; Bayer AG, Leverkusen, Germany), and the pupils dilated with 2.5% tropicamide (Alcon, Fort Worth, Tex.). […]
RNA Extraction, Reverse Transcription, & PCR. […] Gene expression was measured at RNA level per 100 ng of total RNA using one-step RT-PCR kit (Bio-Rad, Hercules, Calif.). Four host genes (mouse GAPDH, mouse MMP2, mouse HPSE-1 (heparanase-1), and mouse MMP9) were analyzed to confirm relative quantitative expression levels. The primer pairs used were specifically designed and synthesized by Qiagen GmbH, Hilden, Germany (Quantitech Primer assay kit, for each host gene, catalog numbers QT01658692, QT00088396, QT00009555, and QT00040040, respectively). One-step Real-time quantitative RT-PCR reactions were performed in a 50-μL volume containing a solution of 1× supermix (iQ SYBR Green; Bio-Rad, Hercules, Calif.), 1 μM mix of forward and reverse primers, and 5 μL total RNA. […] Relative quantitative expression levels were determined for each gene. […]

Experiment [1] concerns VEGF-induced ocular angiogenesis. The note with it: rabbit eye model, reference 17; cited from earlier work.
For a further experiment, the system named is zona occludin 1 (ZO-1). Kind of experiment: Streptozotocin-induced diabetic mice, retinal ZO-1 immunohistochemistry. The format is in vivo, mouse. The note with it: 14 consecutive days, vs untreated diabetic. How it is done:
Streptozotocin (STZ) induced diabetes. Twelve week old C57Bl/6 mice were used for this study. Mice were induced to have diabetes by intraperitoneal injection of 170 μg/g of streptozotocin (Sigma Aldrich, St. Louis, Mo.). Controls were injected with a vehicle (0.01M sodium citrate buffer). On the third day after STZ treatment, mice tail veins were bled to test the hyperglycemic status using blood sugar detection kit (Lifescan; Johnson & Johnson, Milpitas, Calif.). Mice with blood sugar levels of >300 mg/dL on the third day after STZ treatment were considered diabetic. Eye drop treatment containing 1% apoEdp or vehicle PBS was continued 4 times a day for 14 consecutive days. Intra-peritoneal (i/p) injection containing 40 mg/kg of apoEdp or vehicle control PBS was administered once daily for 14 consecutive days. On the 15th day post-treatment, mice were euthanized, their eyes enucleated, and the retinas dissected out to use for mRNA or Western blot analysis.
Immunohistochemistry. […]
To investigate the effect of apoEdp on attenuation of ZO-1 loss, immunohistochemical detection of ZO-1 was performed in formalin-fixed de-paraffinized sections of mouse retinas of different experimental groups. […] The number of positive cells was determined in the high-power field (×400) for the retinas.

For `CC(=O)N[C@@H](CC(C)C)C(=O)N[C@@H](CCCNC(=N)N)C(=O)N[C@@H](CCCCN)C(=O)N[C@@H](CC(C)C)C(=O)N[C@@H](CCCNC(=N)N)C(=O)N[C@@H](CCCCN)C(=O)N[C@@H](CCCNC(=N)N)C(=O)N[C@@H](CC(C)C)C(=O)N[C@@H](CC(C)C)C(=O)N[C@@H](CC(C)C)C(=O)N[C@@H](CCCNC(=N)N)C(=O)N[C@@H](CCCCN)C(=O)N[C@@H](CC(C)C)C(=O)N[C@@H](CCCNC(=N)N)C(=O)N[C@@H](CCCCN)C(=O)N[C@@H](CCCNC(=N)N)C(=O)N[C@@H](CC(C)C)C(=O)N[C@@H](CC(C)C)C(N)=O` [apoEdp, Ac-LRKLRKRLLLRKLRKRLL-amide] (Ac-LRKLRKRLLLRKLRKRLL-NH2), in the experiment with MMP9, the “Expression of MMP9 in retina” value was “dramatically reduced”. Further, the VEGF-induced ocular angiogenesis result in experiment [1] is “blocks”. Besides, the “Number of ZO-1 positive cells in retina (high-power field ×400)” value in the experiment on zona occludin 1 (ZO-1) (i/p injections 40 mg/kg) and in the experiment on zona occludin 1 (ZO-1) (topical 1% apoEdp drops) was “significantly increased the number of positive cells” in each case.
